The values below are quoted from earlier work in patent US20210322306A1, “ORAL DISSOLVABLE FILM WITH HIGH LOAD OF POLYMERIC BINDER” (CURE Pharmaceutical Holding Corp., priority 2020, published 2021).

Structures are written as SMILES.

The conditions of data set [1]: neat binder.
The conditions of data set [2]: neat binder. This is another data set of the same source.

In the case of `OC[C@H]1O[C@@H](O[C@H]2[C@H](O)[C@@H](O)C(O)O[C@@H]2CO)[C@H](O)[C@@H](O)[C@H]1O` (some centres unmarked) [Lactose], the Polymeric Binder: Glass Transition Temperature (Tg) (determined by differential scanning calorimetry (DSC)) in data set [1] was 102 °C. Further, in data set [2], the Polymeric Binder: Glass Transition Temperature (Tg) (determined by thermomechanical analysis (TMA)) was 95 °C.
